According to the NIST ThermoML archive (doi:10.1007/s10765-009-0566-6):
Numbers after ± are expanded uncertainties.

Experiment: refractive index (Na D-line) (dimensionless); mn = molality of the nth substance listed, in mol/kg
Details: 101 kPa, Liquid, Standard Abbe refractometry

CCCCCn1cc[n+](C)c1.[Cl-] [1-methyl-3-pentylimidazolium chloride] + O
refractive index
Details | 298.15 K | 308.15 K | 318.15 K | 328.15 K
m1 = 0.014 | 1.3331 ± 0.0011 | 1.3318 ± 0.0011 | 1.3302 ± 0.0011 | 1.3282 ± 0.0011
m1 = 0.0263 | 1.3334 ± 0.0011 | 1.3321 ± 0.0011 | 1.3305 ± 0.0011 | 1.3284 ± 0.0011
m1 = 0.0391 | 1.3338 ± 0.0011 | 1.3324 ± 0.0011 | 1.3308 ± 0.0011 | 1.3288 ± 0.0011
m1 = 0.0518 | 1.3342 ± 0.0011 | 1.3328 ± 0.0011 | 1.3313 ± 0.0011 | 1.3291 ± 0.0011
m1 = 0.0634 | 1.3344 ± 0.0011 | 1.3331 ± 0.0011 | 1.3316 ± 0.0011 | 1.3294 ± 0.0011
m1 = 0.084 | 1.3351 ± 0.0011 | 1.3339 ± 0.0011 | 1.3322 ± 0.0011 | 1.3305 ± 0.0011
m1 = 0.1007 | 1.3358 ± 0.0011 | 1.3344 ± 0.0011 | 1.3327 ± 0.0011 | 1.3309 ± 0.0011
m1 = 0.1369 | 1.3367 ± 0.0011 | 1.3357 ± 0.0011 | 1.3336 ± 0.0011 | 1.3316 ± 0.0011
m1 = 0.1784 | 1.3379 ± 0.001 | 1.3367 ± 0.0011 | 1.3349 ± 0.0011 | 1.3328 ± 0.0011
m1 = 0.2198 | 1.3392 ± 0.001 | 1.3378 ± 0.0011 | 1.3359 ± 0.0011 | 1.3339 ± 0.0011
m1 = 0.2765 | 1.3408 ± 0.001 | 1.3397 ± 0.001 | 1.3377 ± 0.0011 | 1.3356 ± 0.0011
m1 = 0.3517 | 1.343 ± 0.001 | 1.3416 ± 0.001 | 1.3397 ± 0.001 | 1.3376 ± 0.001
m1 = 0.4043 | 1.3443 ± 0.001 | 1.343 ± 0.001 | 1.3411 ± 0.001 | 1.3389 ± 0.001
m1 = 0.5014 | 1.347 ± 0.001 | 1.3457 ± 0.001 | 1.3437 ± 0.001 | 1.3419 ± 0.001
m1 = 0.5758 | 1.3489 ± 0.001 | 1.3475 ± 0.001 | 1.3457 ± 0.001 | 1.344 ± 0.001
m1 = 0.8464 | 1.3558 ± 0.001 | 1.3547 ± 0.001 | 1.3523 ± 0.001 | 1.3505 ± 0.001
m1 = 1.002 | 1.3596 ± 0.001 | 1.3579 ± 0.001 | 1.3557 ± 0.001 | 1.3537 ± 0.001
m1 = 1.376 | 1.3679 ± 0.001 | 1.3658 ± 0.001 | 1.3639 ± 0.001 | 1.3619 ± 0.001
m1 = 1.797 | 1.3764 ± 0.0009 | 1.3745 ± 0.0009 | 1.3721 ± 0.0009 | 1.3697 ± 0.0009
